Data on 7 compounds can be found in patent publication US8673890B2, “2,3-dihydro-1H-isoindol-1-imine derivatives useful as thrombin PAR-1 receptor antagonist” (Janssen Pharmaceutica NV, priority 2009, dated 2014).

Structures are written as SMILES. pIC50: −log10 of the molar value. Several values for one entry are separate records, joined by “and”; a condition that tells them apart may be missing. Identical values can stand only once.

One may read the IC50 as the concentration that gives 50% inhibition. Broadly, the pIC50 is the IC50 on a negative log10 scale, so that one unit is a factor of ten. Higher therefore signals a small IC50.

Assay [1] addresses T1, thrombin receptor (PAR-1) (Homo sapiens, UniProt P25116).
T1 construct: Human aortic smooth muscle cells (HSMC) were purchased from Cascade Biologics; host or cells: human aortic smooth muscle cells (HSMC)
T1 sequence (P25116 22-425): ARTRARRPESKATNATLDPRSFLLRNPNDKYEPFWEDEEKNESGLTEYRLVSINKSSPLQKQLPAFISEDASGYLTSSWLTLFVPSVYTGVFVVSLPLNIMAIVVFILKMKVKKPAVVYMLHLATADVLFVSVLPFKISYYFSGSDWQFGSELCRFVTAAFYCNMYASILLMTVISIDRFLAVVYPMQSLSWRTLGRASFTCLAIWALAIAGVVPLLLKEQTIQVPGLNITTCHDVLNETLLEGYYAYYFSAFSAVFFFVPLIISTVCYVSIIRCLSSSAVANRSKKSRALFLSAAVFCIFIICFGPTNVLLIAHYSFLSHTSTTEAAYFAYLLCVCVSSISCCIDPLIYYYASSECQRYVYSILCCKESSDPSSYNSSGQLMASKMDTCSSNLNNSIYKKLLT
The experiment in a line: FLIPR-based calcium-flux assay with human smooth muscle cells (Har peptide agonist). The following applies: HSMC; 30 nM Har (PAR1) peptide agonist; 80-min drug incubation; multiple values = individual measurements. It counts as cell-based. The method, then: Human aortic smooth muscle cells (HSMC) were purchased from Cascade Biologics (Portland, Oreg.) and cultured in M-231 containing smooth muscle cell growth supplement and 1× Antibiotic-Antimycotic.
To determine agonist concentration for compound testing: On the day prior to the assay, 100 μL of cells (2×10^5/mL) were seeded in clear, flat-bottom black-wall, tissue culture treated polystyrene 96-well plates and incubated at 37° C., 5% CO2. On the day of the assay, 50 μL of complete dye loading solution (FLIPR Calcium 3 Kit, Molecular Devices) was added to each well containing 100 μL of culture media. The cells were incubated for 30-45 min at 37° C., in 5% CO2 before initiating the assay on the FLIPR. The agonist effect of PAR1 peptide (S-(p-F-Phe)-Har-L-Har-KY-NH2; Har=homoarginine; referred to herein as “Har” peptide) was tested and the EC50 was determined. The EC60-70 dose was used (30 nM) for compound testing.
Compound testing: On the day prior to the assay, 90 μL of cells (2.2×10^5/mL) were seeded in clear, flat-bottom black-wall, tissue culture treated polystyrene 96-well plates and incubated at 37° C., 5% CO2. On the day of the assay, the test compounds were prepared at 10× in 3% DMSO Hanks buffer and 10 μL was added to each well (final DMSO concentration of 0.3%). The cells were incubated 20 min at 37° C., 5% CO2. Culture medium containing testing compounds was dumped and the cells were washed four times with DPBS containing 0.1% of BSA and re-fed with 80 μL of growth medium. 70 μL of BD (fluorescent) dye was loaded to the cells and incubated 45 min at 37° C. incubator. The plates were equilibrated to room temperature for 15 min. 4× PAR1 peptide (30 nM final concentration) agonist plate and the cell plate were placed in FLIPR's assay chamber. 50 μL agonist was added to the cells and data was recorded for 5 min. Raw fluorescence data was exported for each well and tabulated versus time within an ASCII file. Data was then imported into Excel® and the peak response over basal level was determined. The percent inhibition for each test compound was calculated by the changes of fluorescent density as a % inhibition of the control Har peptide response to obtain an IC50.
Representative compounds of the present invention were tested according to the procedure described in Biological Example 1 above, with results in Table 8 below. In Table 8 below, where multiple values are listed for a particular compound, said numbers represent individual measurements (tests) for said compound.

Assay [2] relates to washed platelets. The assay is described as follows: Har peptide-induced platelet aggregation in washed platelets. It counts as cell-based. Particulars: Homo sapiens. Here is the method: (§1) Platelet aggregation studies were performed according to the method of Bednar et al. (Bednar, B., Condra, C., Gould, R. J., and Connolly, T. M., Thromb. Res., 77:453-463 (1995)). Platelet-rich plasma (PRP) concentrates prepared from healthy volunteers who were aspirin free for at least 7 days by venipuncture using ACD-A as anticoagulant was purchased from Biological Specialties, Inc. (Colmar, Pa.). PRP was centrifuged at 730 g for 15 min. The platelet pellet was washed twice in CGS buffer (13 mM sodium citrate, 30 mM glucose, 120 mM NaCl, pH 6.5) containing 1 U/ml apyrase (grade V, Sigma-Aldrich, St. Louis, Mo.), 1 mM EGTA, and re-suspended in Tyrode's buffer (140 mM NaCl, 2.7 mM KCl, 12 mM NaHCO3, 0.76 mM Na2HPO4, 5.5 mM dextrose, 5.0 mM HEPES, 0.2% BSA, pH 7.4). The platelets were diluted to 3×10^8 platelets/ml and kept >45 min at 37° C. before use. 105 μl of washed platelets, 2 mM CaCl2 and […] of fibrinogen (for PAR-1 peptide-induced platelet aggregation only) were added to a 96-well microliter plate. Platelet aggregation was initiated by the addition of serial concentrations of Har peptide or thrombin (Alpha; American Diagnostica, Cat. # 470HT, 2,500 NIH Units/mg). Buffer was added to one set of control wells. The assay plate was stirred constantly and intermittently placed in a microplate reader (Softmax, Molecular Devices, Menlo Park, Calif.) to read optical density (650 nm) at 0 and 5 minutes after the addition of the compound solutions. Aggregation was calculated as the decrease in optical density between the time 0- and 5-min measurements and expressed as % of aggregation.
(§2) For the inhibition assay, platelet aggregation measurements were conducted as described, with the additional step of test compound addition. Compounds were prepared in 100% DMSO and stored. On the day of the experiment, the compounds were diluted in the Tyrode's buffer containing 3% of DMSO as a 10× working solution. 15 μl of test compound solutions were added to 105 μl of platelets 5 min prior to CaCl2 and fibrinogen additions. Platelet aggregation was initiated by the addition of agonist shown to achieve 60-70% aggregation. Antagonist potency was estimated as a % inhibition of the control Har peptide or thrombin response to obtain an IC50.
(§3) Representative compounds of the present invention were tested according to the procedure described in Biological Example 2 above, with results in Table 9 below. In Table 9 where multiple values are listed for a particular compound, said numbers represent individual measurements (tests) for said compound.

The test system of assay [3] is washed platelets. The experiment in a line: Thrombin-induced platelet aggregation in washed platelets. It counts as cell-based, human. The following applies: for IC50: Homo sapiens, Platelet. The method, then: as §1, §2, §3
Assay [4] deals with platelets in platelet-rich plasma. The experiment in a line: Har peptide-induced platelet aggregation in platelet-rich plasma. It counts as cell-based, human. Particulars: Homo sapiens, Platelet, multiple values = individual measurements. The method, then:
(§4) The procedure for this assay is similar to that described in Biological Example 2, above. Briefly, platelet aggregation studies were performed according to the method of Bednar et al. (Bednar, B., Condra, C., Gould, R. J., and Connolly, T. M., Thromb. Res., 77:453-463 (1995)). Platelet-rich plasma (PRP) concentrates prepared from healthy volunteers who were aspirin free for at least 7 days by venipuncture using EDTA as anticoagulant was purchased from Biological Specialties, Inc. (Colmar, Pa.). PPP (platelet-poor-plasma) was obtained by centrifugation of PRP at Max (3,000 rpms) for 15 min at room temperature. PRP was diluted to yield platelet count of 300×10^3 platelets/μL with PPP. For thrombin induced platelet aggregation: 118 μL of 500 mM GPRP-NH2 was added to 12 mL of 300×10^3 platelets before using (to clean the fibrinogen in the plasma.) GPRP was added just before the experiment. 15 μL of test compound solutions were added to 120 μL of platelets 5 min prior the agonist additions. Platelet aggregation was initiated by the addition of agonist shown to achieve 60-70% aggregation. Antagonist potency was estimated as a % inhibition of the control Har peptide or thrombin response to obtain an IC50.
(§5) Where multiple values are listed for a particular compound, said numbers represent individual measurements (tests) for said compound.

Assay [5] has the same test system. The assay is described as follows: Thrombin-induced platelet aggregation in platelet-rich plasma. It counts as cell-based, human. The following applies: multiple values = individual measurements. The method, then: as §4, §5

For the compound `CC(C)(C)c1cc(C(=O)CN2Cc3cc4c(cc3C2=N)OCc2ncccc2CO4)cc(C(C)(C)C)c1O` [Compound 49], the IC50 was 0.019 µM and 0.059 µM and 0.023 µM and 0.038 µM in assay [1]; 0.068 µM with washed platelets [2]; 0.107 µM in the assay with washed platelets [3]. Besides, the negative logarithm of the IC50 (pIC50) in assay [4] was 6.41; in assay [5], 6.16 and 5.61.

`COc1c(N2CCOCC2)cc(C(=O)CN2Cc3cc4c(cc3C2=N)OCc2nccnc2CO4)cc1C(C)(C)C` [Compound 58]: the values for the IC50 (in assay [1]; with washed platelets [2]; in the assay with washed platelets [3]) were 0.103 µM, 0.214 µM and 0.304 µM, respectively. Further, the pIC50 in assay [4] is 6.13; in assay [5] (Homo sapiens, Platelet) it was 6.10.

In the case of `COc1c(N2CCOCC2)cc(C(=O)CN2Cc3cc4c(cc3C2=N)OCc2cc3c(cc2CO4)OCO3)cc1C(C)(C)C` [Compound 59], the values for the IC50 (in assay [1]; in the assay on washed platelets [2]; with washed platelets [3]) were 0.371 µM, 1.25 µM and 2.11 µM, respectively. The same compound showed a pIC50 in assay [4] of 5.21.

For `COC(=O)c1ccc2c(c1)COc1cc3c(cc1OC2)CN(CC(=O)c1cc(N2CCOCC2)c(OC)c(C(C)(C)C)c1)C3=N` [Compound 73], the IC50 in assay [1] is 0.047 µM and 0.057 µM; with washed platelets [2], 0.446 µM; in the assay on washed platelets [3] it was 0.813 µM. In addition, the pIC50 in assay [4] was 5.17; in assay [5] it was 5.61 and < 5.00.

In the case of `Cc1sc(C)c2c1COc1cc3c(cc1OC2)C(=N)N(CC(=O)c1cc(C(C)(C)C)c(O)c(C(C)(C)C)c1)C3` [Compound 74], the IC50 in assay [1] is 0.15 µM and 0.16 µM; in the assay on washed platelets [2], 0.779 µM. Moreover, the “Washed platelet aggregation IC50 (μM) Thrombin” value in the assay on washed platelets [3] was “variable”. Besides, the pIC50 in assay [4] is < 5.00; in assay [5] (Homo sapiens, Platelet), < 5.00; in assay [5], < 5.00.

On to `COc1c(C(C)(C)C)cc(C(=O)CN2Cc3cc4c(cc3C2=N)OCc2ncccc2CO4)cc1C(C)(C)C` [Compound 75], for which the IC50 in assay [1] was 0.39 µM and 0.46 µM; in the assay on washed platelets [2] it was 0.183 µM; in the assay on washed platelets [3], > 10 µM. The pIC50 in assay [4] is 5.52; in assay [5] it was 5.66 and < 5.00.

Turning to `COc1c(C(C)(C)C)cc(C(=O)CN2Cc3cc4c(cc3C2=N)OCc2cccnc2CO4)cc1C(C)(C)C` [Compound 76], the IC50 in assay [1] was 0.58 µM; in the assay on washed platelets [2], 0.309 µM; in the assay with washed platelets [3], > 10 µM. The negative logarithm of the IC50 (pIC50) was 5.69 in assay [4]; < 5.00 in assay [5] (Homo sapiens, Platelet); < 5.00 in assay [5].
